Test results: patent US20210379066A1, “COMBINATIONS OF POSITIVE ALLOSTERIC MODULATORS AND NICOTINIC ACETYLCHOLINE RECEPTOR AGONISTS FOR TREATING OCULAR CONDITIONS” (Oyster Point Pharma, Inc., priority 2018, published 2021)
Where “and” joins values, the source holds several entries; their conditions need not be identical. Identical values can stand only once. Like-named read-outs stand apart in the source and are kept apart here.

Key:
[1] = target: nAChR subtype alpha3beta2 (Homo sapiens, UniProt P17787+P32297); assay: Agonist characterisation versus ACh response (description); type: cell-based
Text: nAChR agonist response, from which receptor activation can be determined can, for example, be generated using an appropriate cell-based assay. Cells designed to express a particular nAChR receptor subtype and generate an electrical current response when bound to and activated by a nAChR agonist can be used to characterize the agonist profile of a compound and the amount of receptor activation thus determined. An example of a generic protocol is described below.
Cells that express a particular human nAChR subtype are first exposed to ACh. ACh binds and activates the receptor, thereby evoking a current. The concentration of the ACh is chosen to elicit the maximum response of the receptor (e.g., 1280 micromolar ACh). This current is recorded as the ACh response and serves as the 100% nAChR agonist response and to which responses to other nAChR agonists are compared. After washing, the cells are exposed to a nAChR agonist at various concentrations (e.g., 0.1, 0.3, 1, 3, 10, 30, 100, and 300 micromolar). The current evoked by exposure to the nAChR agonist is measured and recorded for each nAChR concentration. This nAChR agonist response data is then normalized to unity versus the maximal ACh evoked current and plotted as a function of the logarithm of the nAChR agonist concentration. The nAChR agonist response is then calculated as a percentage of the ACh response.

[2] = Pharmacokinetics in human subjects after 28 days of intranasal administration (Example 7); type: in vivo
Procedure: Blood plasma for the patients was collected on Day 29 predose (time 0) and after a series of time points (10 min, 20 min, 30 min, 1 hr, 2 hrs, 4 hrs, 5 hrs, 6 hrs, 7 hrs, 8 hrs, and 24 hrs) after a single administration of drug. The blood plasma was analyzed for Compound 1.
The following pharmacokinetic parameters for Compound 1 were calculated: • Cmax: Maximum observed concentration, observed by inspection of individual study participant plasma concentration time plots. • Tmax: Time of maximum observed concentration, obtained directly from the observed concentration time data. • AUClast: The area under the plasma concentration time curve, from time 0 to the last measurable non-zero concentration, calculated by a combination of linear and logarithmic trapezoidal methods (Linear up/log down method). • AUC0-4h: The area under the plasma concentration time curve, from time 0 to the 4 h time point, calculated by a combination of linear and logarithmic trapezoidal methods (Linear up/log down method). • AUCinf: The area from zero time (pre-dose) extrapolated to infinite time (AUCinf) will be calculated as follows: AUCinf=AUClast+Cz/λz. • AUC % Extrap: The percentage of AUCinf obtained by extrapolation (AUC % Extrap) will be calculated as follows:
[formula] • Half-life: Terminal elimination half-life.

[3] = Max, N=7, Day 29 dose after 28 days BID
[4] = Min, N=7, Day 29 dose after 28 days BID
[5] = human, plasma, other: intranasal spray, […] Compound 1, 50 μL spray in each nostril, Max, N=7, Day 29 dose after 28 days BID
[6] = human, plasma, other: intranasal spray, […] Compound 1, 50 μL spray in each nostril, Mean, N=7, Day 29 dose after 28 days BID
[7] = human, plasma, other: intranasal spray, […] Compound 1, 50 μL spray in each nostril, Median, N=7, Day 29 dose after 28 days BID

Chain of nAChR subtype alpha3beta2 (P32297 32-505): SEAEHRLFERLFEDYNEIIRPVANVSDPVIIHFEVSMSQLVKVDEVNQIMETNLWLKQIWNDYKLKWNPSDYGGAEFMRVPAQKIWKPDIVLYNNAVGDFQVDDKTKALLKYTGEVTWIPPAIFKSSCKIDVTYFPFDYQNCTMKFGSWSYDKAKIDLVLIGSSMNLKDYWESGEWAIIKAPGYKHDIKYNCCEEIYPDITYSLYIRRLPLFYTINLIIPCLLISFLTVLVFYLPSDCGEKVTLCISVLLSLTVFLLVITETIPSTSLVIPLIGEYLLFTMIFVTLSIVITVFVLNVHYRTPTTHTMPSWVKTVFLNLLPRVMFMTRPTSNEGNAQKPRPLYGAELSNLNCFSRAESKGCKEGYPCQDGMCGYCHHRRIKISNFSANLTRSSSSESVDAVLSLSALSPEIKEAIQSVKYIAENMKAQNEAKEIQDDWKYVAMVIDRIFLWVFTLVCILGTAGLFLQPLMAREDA
Chain of nAChR subtype alpha3beta2 (P17787 26-502): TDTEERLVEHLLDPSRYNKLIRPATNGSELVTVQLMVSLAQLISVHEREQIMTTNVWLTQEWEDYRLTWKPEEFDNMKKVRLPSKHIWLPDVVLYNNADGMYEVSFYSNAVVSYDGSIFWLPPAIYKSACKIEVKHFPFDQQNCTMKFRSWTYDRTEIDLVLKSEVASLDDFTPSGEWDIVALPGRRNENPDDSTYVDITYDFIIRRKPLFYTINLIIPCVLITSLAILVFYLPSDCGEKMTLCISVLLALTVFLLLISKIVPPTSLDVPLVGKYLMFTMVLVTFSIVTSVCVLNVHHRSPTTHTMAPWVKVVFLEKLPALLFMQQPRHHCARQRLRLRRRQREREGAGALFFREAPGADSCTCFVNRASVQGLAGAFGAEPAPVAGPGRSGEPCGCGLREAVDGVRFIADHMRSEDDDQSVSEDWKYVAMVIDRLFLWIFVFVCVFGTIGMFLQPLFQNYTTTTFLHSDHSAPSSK

For `C(=C\[C@H]1CCNC1)/c1cncnc1` [Compound 1, (R)-5-((E)-2-pyrrolidin-3-ylvinyl)pyrimidine], the agonist character [1] was “partial agonist”, the “AUC % Extrap” value [2, 3] was 41.1% and the Tmax [2, 3] was 1.2 h. The “AUC % Extrap” value ([2]; Mean, N=7, Day 29 dose after 28 days BID) was 21.3%, the “AUC % Extrap” value ([2]; Median, N=7, Day 29 dose after 28 days BID) was 23.3% and the “AUC % Extrap” value [2, 4] was 3.69% and 3.67%. For the same compound, the AUCinf [2, 4] was 1.21 ng·h/mL, the AUClast [2, 4] was 0.801 ng·h/mL and the Cmax [2, 4] was 0.621 ng/mL. For the same compound, the Tmax [2, 4] was 0.17 h, the half-life [2, 4] was 0.852 h and the half-life ([2]; human, plasma, inhaled or intranasal, […] Compound 1, 50 μL spray in each nostril, Mean, N=7, Day 29 single intranasal dose of […] Compound 1 (2.0% hemigalactarate salt) after 28 days BID, 50 μL per nostril, read-out: Half-life (converted)) was 1.58 ± 0.818 h. It also gave a Cmax ([2]; human, plasma, other: intranasal spray, […] Compound 1, 50 μL spray in each nostril, Max (individual subject maximum), N=7, Day 29 dose after 28 days BID, read-out: Cmax) of 5.49 ng/mL, an AUC(0-inf) [2, 5] of 12.5 ng·h/mL and an AUC(0-t) [2, 5] of 12.1 ng·h/mL. For the same compound, the half-life ([2]; human, plasma, other: intranasal spray, […] Compound 1, 50 μL spray in each nostril, Max, N=7, Day 29 dose after 28 days BID, read-out: Half-life (converted)) was 2.83 h, the AUC(0-inf) [2, 6] was 6.22 ± 4.63 ng·h/mL and the AUC(0-t) [2, 6] was 5.22 ± 4.52 ng·h/mL. It also gave a Cmax ([2]; human, plasma, other: intranasal spray, […] Compound 1, 50 μL spray in each nostril, Mean, N=7, Day 29 dose after 28 days BID, read-out: Cmax) of 2.26 ± 1.96 ng/mL, a Tmax ([2]; human, plasma, other: intranasal spray, […] Compound 1, 50 μL spray in each nostril, Mean, N=7, Day 29 dose after 28 days BID, read-out: Tmax) of 0.7 h and an AUC(0-inf) [2, 7] of 5.67 ng·h/mL. It also gave an AUC(0-t) [2, 7] of 4.35 ng·h/mL, a Cmax ([2]; human, plasma, other: intranasal spray, […] Compound 1, 50 μL spray in each nostril, Median, N=7, Day 29 dose after 28 days BID, read-out: Cmax) of 1.35 ng/mL and a half-life ([2]; human, plasma, other: intranasal spray, […] Compound 1, 50 μL spray in each nostril, Median, N=7, Day 29 dose after 28 days BID, read-out: Half-life (converted)) of 1.12 h. For the same compound, the Tmax ([2]; human, plasma, other: intranasal spray, […] Compound 1, 50 μL spray in each nostril, Median, N=7, Day 29 dose after 28 days BID, read-out: Tmax) was 0.5 h, the C0 ([2]; human, plasma, other: intranasal spray, […] Compound 1, 50 μL spray in each nostril, Day 29 predose after 28 days BID, detected in 4 out of 7 subjects, read-out: mean plasma concentration at time zero (predose)) was 0.264 ng/mL and the concentration at 1 h ([2]; human, plasma, other: intranasal spray, […] Compound 1, 50 μL spray in each nostril, at 1 h after intranasal administration on Day 29, read-out: peak of mean plasma exposure) was 2.07 ng/mL. The concentration at 24 h ([2]; human, plasma, other: intranasal spray, […] Compound 1, 50 μL spray in each nostril, no subject above lower limit of quantification, read-out: plasma concentration at 24 h post administration) was less than 0.2 ng/mL and the “fraction cleared from systemic circulation before the next administration” value ([2]; if administered every 12 hours (4 half-lives), from maximum individual half-life) was greater than 94%.
